# According to patent publication US20250034108A1, “SODIUM CHANNEL BLOCKERS” (NOVARTIS AG, priority 2023, published 2025):
# pIC50: −log10 of the molar value.
# How the values were obtained:
# human Nav1.5 [1] = molecular target: T1, human Nav1.5 (Homo sapiens (Human), UniProt Q14524); assay: Qpatch automated patch-clamp, peak Nav1.5 current inhibition, 5-Hz AF-like assay (holding potential -85 mV); assay type: cell-based; settings: CHO-K1 cells stably expressing human Nav1.5, holding potential -85 mV, Table 5, read-out: Nav1.5 IC50 (5 Hz, AF Rate)
# Outline: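 CHO-K1 cells stably expressing human Nav1.5, whole-cell automated patch-clamp at room temperature, CsF-based internal. Compounds pre-incubated 3 min each at ascending 0-30 μM; +10 to −85 mV ramp (150 ms) applied at 5 Hz for 12 s from −85 mV holding. IC50 from last-pulse peak current, vehicle-normalized for run-down.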
# human Nav1.5 [2] = molecular target: T1, human Nav1.5; assay: Qpatch automated patch-clamp, peak Nav1.5 current inhibition, 1 Hz sinus rate, ventricular condition (holding potential -100 mV); assay type: cell-based; settings: CHO-K1 cells stably expressing human Nav1.5, without ATX-II
# From the text: Electrophysiology was used to measure the ionic currents in isolated living cells using automated patch-clamp recording, performed using an automated patch-clamp machine called Qpatch (Sophion Bioscience). Two different assay conditions were used to identify compounds with atrial-selective potential. The 5-Hz AF-like assay has more depolarized holding potential at −85 mV to mimic atrial resting membrane potential (RMP) and was used to identify compounds of strong rate-dependence. Active, rate-dependent compounds were then screened at 1 Hz (i.e., sinus rate) at the holding potential of −100 mV to mimic the ventricular scenario and help identify compounds with the largest potency separation or attenuation from the 5-Hz AF-like assay. Such compounds have the potential for treating AF without the QRS liability inherent to Class Ic drugs.
# The sodium current conducted through a cell (via Nav1.5) or electrical signals were processed through a low-pass filter at 5 KHz, re-digitalized and acquired at 20 kHz. Series resistance was not compensated and leak subtraction was performed.
# 1 to 3 million Chinese Hamster Ovary cells (also known as CHO-K1) stably expressing human Nav1.5 were seeded into […] culture flasks with 25 mL medium (consisting of Gibco Dulbecco's Modified Eagle Medium as a base medium with 1% MEM non-essential amino acids, 400 μg/mL Geneticin, 5 μg/mL puromycin and 10% fetal bovine serum) 48-72 hours prior to the experiments. On the day of the experiment, cells were washed once with phosphate-buffered saline (also known as PBS; Gibco) detached with Detachin™ (Genlantis), and re-suspended in CHO—S-SFM II media (Gibco) at 200,000 cells/mL. The CHO—S-SFM II was replaced with assay solutions prior to the assays. Whole-cell currents were recorded at room temperature in the whole-cell configuration. The external aqueous assay solution (pH=7.4; Osm=307-315) contained the following (the concentration for each component is expressed in parentheses in mM): NaCl (140 mM), KCl (4 mM), CaCl2) (2 mM), MgCl2 (1 mM), 4-(2-hydroxyethyl)-1-piperazineethanesulfonic acid, also known as HEPES (10 mM), and glucose (5 mM). The internal aqueous assay solution (pH=7.2; Osm=292-295) contained the following (the concentration for each component is expressed in parentheses in mM): CsF (110 mM), CsCl (10 mM), NaCl (10 mM), HEPES (10 mM), and ethylene glycolbis(β-aminoethyl ether)-N,N,N′,N′-tetraacetic acid, also known as EGTA (10 mM).
# To assess peak Nav1.5 current inhibition mimicking a ventricular condition at sinus rate with or without ATX-II (Nav1.5 IC50 (1 Hz, ATXII) (μM) or (1 Hz, Sinus Rate) (μM)), compounds were first prepared at 10 mM in DMSO, and cells were pre-incubated with test compounds at each concentration for 3 min. in an ascending order of 0, 0.37, 1.1, 3.3, 10 and 30 uM. In the assay with ATX-II (Alomone Labs), 50 nM ATX-II was included during the 3-min. compound incubation. A square pulse (−10 mV; 400 ms and a holding potential at −100 mV) was run at 1 Hz for 25 s until no further inhibition or Nav1.5 current change was observed. The percent inhibition (expressed as ([Iafter compound treatment/Ibefore compound treatment]×100%) is calculated by normalizing the peak current amplitude at the last pulse of each of the 6 compound concentrations by the amplitude before exposure to the test compound. The compiled data was further normalized by vehicle control (DMSO) to account for Nav1.5 current run-down, and IC50 was calculated by Matlab (MathWorks, USA).
# human Nav1.5 [3] = molecular target: T1, human Nav1.5; assay: Qpatch automated patch-clamp, peak Nav1.5 current inhibition, 1 Hz with 50 nM ATX-II (holding potential -100 mV); assay type: cell-based; settings: CHO-K1 cells stably expressing human Nav1.5, read-out: Nav1.5 IC50 (1 Hz, ATXII)
# Outline: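 CHO-K1 cells stably expressing human Nav1.5, whole-cell recording at room temperature; 3-min pre-incubation at 0–30 uM ascending, with or without 50 nM ATX-II. Pulses to −10 mV (400 ms) from −100 mV at 1 Hz for 25 s; last-pulse peak current normalized to pre-compound and DMSO run-down, IC50 fitted.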
# [4] = Hygroscopicity / water uptake of crystalline forms of Example 1; assay type: physicochemical; settings: for hygroscopicity: crystalline form
# T1 sequence (Q14524 whole entry): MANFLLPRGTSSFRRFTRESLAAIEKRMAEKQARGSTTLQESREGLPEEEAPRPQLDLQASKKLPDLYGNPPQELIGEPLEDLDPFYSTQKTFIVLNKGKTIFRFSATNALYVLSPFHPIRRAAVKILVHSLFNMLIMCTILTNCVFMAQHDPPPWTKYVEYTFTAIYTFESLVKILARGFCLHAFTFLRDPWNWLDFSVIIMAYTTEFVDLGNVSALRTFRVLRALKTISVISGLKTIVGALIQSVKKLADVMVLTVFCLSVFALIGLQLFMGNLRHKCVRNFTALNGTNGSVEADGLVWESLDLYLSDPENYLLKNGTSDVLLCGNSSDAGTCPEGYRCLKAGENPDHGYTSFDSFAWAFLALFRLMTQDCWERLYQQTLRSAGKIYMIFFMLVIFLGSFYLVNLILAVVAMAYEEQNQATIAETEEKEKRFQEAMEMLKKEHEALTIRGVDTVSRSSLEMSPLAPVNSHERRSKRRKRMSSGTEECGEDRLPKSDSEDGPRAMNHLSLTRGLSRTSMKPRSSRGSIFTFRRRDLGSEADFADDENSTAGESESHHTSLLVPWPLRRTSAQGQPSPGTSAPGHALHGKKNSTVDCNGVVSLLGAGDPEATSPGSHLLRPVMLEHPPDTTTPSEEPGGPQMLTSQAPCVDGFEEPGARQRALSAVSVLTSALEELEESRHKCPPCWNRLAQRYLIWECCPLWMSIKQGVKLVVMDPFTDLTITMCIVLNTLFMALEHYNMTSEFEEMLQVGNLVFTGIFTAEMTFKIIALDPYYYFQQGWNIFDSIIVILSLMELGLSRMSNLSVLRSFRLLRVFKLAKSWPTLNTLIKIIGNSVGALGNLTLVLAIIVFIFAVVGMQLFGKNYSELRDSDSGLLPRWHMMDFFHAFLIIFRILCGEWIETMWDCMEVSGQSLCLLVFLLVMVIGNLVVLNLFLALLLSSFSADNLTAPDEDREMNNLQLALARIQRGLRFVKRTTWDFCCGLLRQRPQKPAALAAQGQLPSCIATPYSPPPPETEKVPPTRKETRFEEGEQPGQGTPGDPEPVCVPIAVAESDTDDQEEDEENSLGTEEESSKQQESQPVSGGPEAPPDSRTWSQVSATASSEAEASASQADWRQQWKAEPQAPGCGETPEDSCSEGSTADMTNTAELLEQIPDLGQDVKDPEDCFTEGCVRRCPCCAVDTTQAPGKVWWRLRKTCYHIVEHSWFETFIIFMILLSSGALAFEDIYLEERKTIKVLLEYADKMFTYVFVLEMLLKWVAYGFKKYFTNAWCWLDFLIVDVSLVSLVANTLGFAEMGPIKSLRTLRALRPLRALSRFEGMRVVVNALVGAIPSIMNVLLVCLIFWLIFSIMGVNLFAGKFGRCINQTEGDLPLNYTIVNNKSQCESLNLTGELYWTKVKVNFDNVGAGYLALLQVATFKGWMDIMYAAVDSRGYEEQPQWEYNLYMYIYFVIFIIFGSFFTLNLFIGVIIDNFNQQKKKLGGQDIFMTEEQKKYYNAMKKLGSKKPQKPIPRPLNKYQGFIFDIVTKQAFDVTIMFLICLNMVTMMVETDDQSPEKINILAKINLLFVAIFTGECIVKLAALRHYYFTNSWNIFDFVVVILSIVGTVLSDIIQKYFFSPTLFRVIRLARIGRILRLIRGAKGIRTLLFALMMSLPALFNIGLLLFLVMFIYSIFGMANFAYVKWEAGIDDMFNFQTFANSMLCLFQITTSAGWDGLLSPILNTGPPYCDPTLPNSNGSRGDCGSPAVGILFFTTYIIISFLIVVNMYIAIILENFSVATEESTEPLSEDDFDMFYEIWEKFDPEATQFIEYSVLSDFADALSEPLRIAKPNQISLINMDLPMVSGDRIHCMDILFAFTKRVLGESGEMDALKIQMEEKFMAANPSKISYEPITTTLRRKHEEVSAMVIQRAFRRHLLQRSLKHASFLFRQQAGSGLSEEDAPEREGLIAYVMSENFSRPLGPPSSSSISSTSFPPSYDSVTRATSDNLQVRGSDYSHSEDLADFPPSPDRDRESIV
reversible water uptake ([4]; at 90% relative humidity),Structure (SMILES),pIC50 (human Nav1.5 [1]),pIC50 (human Nav1.5 [2]),pIC50 (human Nav1.5 [3]),hygroscopicity [4]
–,"CC(O)(CS(N)(=O)=O)c1nc(-c2nnn(Cc3cc(OC(F)(F)F)ccc3F)n2)ccc1F (single isomer, unassigned) [Example 44, (R or S)-2-(3-fluoro-6-(2-(2-fluoro-5-(trifluoromethoxy)benzyl)-2H-tetrazol-5-yl)pyridin-2-yl)-2-hydroxypropane-1-sulfonamide]",5.34,< 4.52,4.72,–
–,"CC(O)(CS(N)(=O)=O)c1nc(-c2nnn(Cc3cc(OC(F)(F)F)ccc3F)n2)ccc1F (single isomer, unassigned) [Example 45, (R or S)-2-(3-fluoro-6-(2-(2-fluoro-5-(trifluoromethoxy)benzyl)-2H-tetrazol-5-yl)pyridin-2-yl)-2-hydroxypropane-1-sulfonamide]",5.32,< 4.52,< 4.52,–
–,"CC(O)(CS(N)(=O)=O)c1cccc(-c2nnn(Cc3cc(OC4CC4)ccc3F)n2)n1 (single isomer, unassigned) [Example 46, (R or S)-2-(6-(2-(5-cyclopropoxy-2-fluorobenzyl)-2H-tetrazol-5-yl)pyridin-2-yl)-2-hydroxypropane-1-sulfonamide]",5.08,< 4.52,< 4.52,–
–,"CC(O)(CS(N)(=O)=O)c1cccc(-c2nnn(Cc3cc(OC4CC4)ccc3F)n2)n1 (single isomer, unassigned) [Example 47, (R or S)-2-(6-(2-(5-cyclopropoxy-2-fluorobenzyl)-2H-tetrazol-5-yl)pyridin-2-yl)-2-hydroxypropane-1-sulfonamide]",5.41,4.57,4.89,–
–,"CC(C(O)c1cccc(-c2nnn(Cc3cc(OC(F)(F)F)ccc3F)n2)n1)S(N)(=O)=O (single isomer, unassigned) [Example 52, (JR or 1S,2R or 2S)-1-(6-(2-(2-fluoro-5-(trifluoromethoxy)benzyl)-2H-tetrazol-5-yl)pyridin-2-yl)-1-hydroxypropane-2-sulfonamide]",5.54,4.31,4.66,–
–,"C[C@](O)(CS(N)(=O)=O)c1cccc(-c2nnn(Cc3cc(OC(F)(F)F)ccc3F)n2)n1 [Example 1, (R)-2-(6-(2-(2-fluoro-5-(trifluoromethoxy)benzyl)-2H-tetrazol-5-yl)pyridin-2-yl)-2-hydroxypropane-1-sulfonamide]",5.51,4.66,4.72,–
about 0.10%,"C[C@](O)(CS(N)(=O)=O)c1cccc(-c2nnn(Cc3cc(OC(F)(F)F)ccc3F)n2)n1 [Modification A-1, (R)-2-(6-(2-(2-fluoro-5-(trifluoromethoxy)benzyl)-2H-tetrazol-5-yl)pyridin-2-yl)-2-hydroxypropane-1-sulfonamide]",–,–,–,not hygroscopic
–,"C[C@](O)(CS(N)(=O)=O)c1cccc(-c2nnn(Cc3cc(OC(F)(F)F)ccc3F)n2)n1 [Modification A-2, (R)-2-(6-(2-(2-fluoro-5-(trifluoromethoxy)benzyl)-2H-tetrazol-5-yl)pyridin-2-yl)-2-hydroxypropane-1-sulfonamide]",–,–,–,hygroscopic and shows gel formation at 70% relative humidity and above
–,"C[C@](O)(CS(N)(=O)=O)c1cccc(-c2nnn(Cc3cc(OC(F)(F)F)ccc3F)n2)n1 [Modification A-3, (R)-2-(6-(2-(2-fluoro-5-(trifluoromethoxy)benzyl)-2H-tetrazol-5-yl)pyridin-2-yl)-2-hydroxypropane-1-sulfonamide]",–,–,–,hygroscopic and shows gel formation at 70% relative humidity and above
